According to ChEMBL document CHEMBL1201862, “PubChem BioAssay data set” (2004):
Activity calls are given as the source filed them.

Legend:
[1] = HEK-293T viability loss after treatment – luminescence, T-cell screen hits, cytotoxicity control for TCR NF-kB inhibitor project, dose response (AID 489026); assay type: functional, cell-based;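 also: cells exposed to compound about 14 hours before the viability readout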
[2] = molecular target: T1, Alkaline phosphatase, tissue-nonspecific isozyme (Homo sapiens, UniProt P05186)
T1 sequence (P05186 whole entry): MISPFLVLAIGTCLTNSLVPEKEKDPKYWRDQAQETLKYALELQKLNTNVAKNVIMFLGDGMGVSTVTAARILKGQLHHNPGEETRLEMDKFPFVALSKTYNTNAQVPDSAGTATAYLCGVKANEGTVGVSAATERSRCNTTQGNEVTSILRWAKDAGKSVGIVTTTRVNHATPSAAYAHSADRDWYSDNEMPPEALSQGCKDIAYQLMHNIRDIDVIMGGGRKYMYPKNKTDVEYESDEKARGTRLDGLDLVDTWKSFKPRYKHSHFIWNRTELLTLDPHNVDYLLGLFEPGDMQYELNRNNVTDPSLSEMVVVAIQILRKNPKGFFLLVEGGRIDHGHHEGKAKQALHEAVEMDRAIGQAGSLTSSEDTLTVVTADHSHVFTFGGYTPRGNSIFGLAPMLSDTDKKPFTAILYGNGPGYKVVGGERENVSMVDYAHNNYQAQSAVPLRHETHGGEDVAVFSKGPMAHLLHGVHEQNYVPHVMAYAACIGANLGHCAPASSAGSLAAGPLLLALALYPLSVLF

[3] = molecular target: T2, Eukaryotic translation initiation factor 2-alpha kinase 3 (Homo sapiens, UniProt Q9NZJ5); experiment: Dose response cell-based high-throughput screening assay to measure PERK inhibition. [Related pubchem assays: 1416 ]; assay type: functional
T2 sequence (Q9NZJ5 whole entry): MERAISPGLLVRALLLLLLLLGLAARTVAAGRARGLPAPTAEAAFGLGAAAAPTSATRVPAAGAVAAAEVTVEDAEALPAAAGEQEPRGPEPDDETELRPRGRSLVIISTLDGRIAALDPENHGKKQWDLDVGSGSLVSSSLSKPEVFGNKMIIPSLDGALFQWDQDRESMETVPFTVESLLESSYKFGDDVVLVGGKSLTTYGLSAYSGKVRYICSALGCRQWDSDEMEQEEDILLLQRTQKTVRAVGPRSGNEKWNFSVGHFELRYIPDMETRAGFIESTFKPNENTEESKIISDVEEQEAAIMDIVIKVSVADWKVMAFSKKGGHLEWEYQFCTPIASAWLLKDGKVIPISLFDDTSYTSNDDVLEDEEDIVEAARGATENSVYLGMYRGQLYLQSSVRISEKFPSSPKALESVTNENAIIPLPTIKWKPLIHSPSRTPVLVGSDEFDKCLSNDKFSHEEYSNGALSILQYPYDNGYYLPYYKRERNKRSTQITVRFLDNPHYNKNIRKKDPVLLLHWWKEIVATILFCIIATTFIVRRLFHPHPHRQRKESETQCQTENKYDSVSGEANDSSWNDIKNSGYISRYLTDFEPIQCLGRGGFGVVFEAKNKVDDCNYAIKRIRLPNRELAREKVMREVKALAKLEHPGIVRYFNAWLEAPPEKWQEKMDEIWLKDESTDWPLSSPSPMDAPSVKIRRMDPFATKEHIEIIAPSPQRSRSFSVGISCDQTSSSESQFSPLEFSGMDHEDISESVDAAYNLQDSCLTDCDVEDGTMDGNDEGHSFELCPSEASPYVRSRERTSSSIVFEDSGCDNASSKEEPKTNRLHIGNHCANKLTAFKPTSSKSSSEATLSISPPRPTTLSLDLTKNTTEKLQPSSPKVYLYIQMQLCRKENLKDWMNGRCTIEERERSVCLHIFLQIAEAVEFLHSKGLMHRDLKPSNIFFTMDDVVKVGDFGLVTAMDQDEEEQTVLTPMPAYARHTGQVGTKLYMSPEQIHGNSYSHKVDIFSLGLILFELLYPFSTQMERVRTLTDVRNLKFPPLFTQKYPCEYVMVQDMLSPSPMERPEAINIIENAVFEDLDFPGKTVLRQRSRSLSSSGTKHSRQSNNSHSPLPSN

[4] = molecular target: T2, Eukaryotic translation initiation factor 2-alpha kinase 3; experiment: Counterscreen assay for PERK inhibitors: Dose response cell-based high throughput screening assay to measure inhibition of PERK at 6 hours. [Related pubchem assays: 1522, 1416 ]; assay type: functional
INS1 = experiment: INS-1E survival protection against cytokine death – cell-based, luminescence, retest, dose response (AID 449756); assay type: functional; settings: Rattus norvegicus;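 also: cell death triggered by IL-1 beta plus TNF-alpha plus IFN-gamma mixture; protective hits raise ATP signal compared with cytokine alone wells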
[5] = A cytotoxicity screen of small molecule inhibitors of the PhoP region in Salmonella typhi identified in the primary screen. [Related pubchem assays: 1850, 1864, 1985 ]; assay type: functional
[6] = HIV-1 AD8 envelope cell-cell fusion blockers – cherry-pick, dose response (AID 652062); assay type: functional, cell-based;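 also: luciferase signal from cell-cell fusion driven by HIV-1 clade B AD8 Env; potency is for inhibitors of fusion seen as a drop in luminescence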
[7] = molecular target: T3, Luciferin 4-monooxygenase (Photinus pyralis, UniProt P08659); experiment: Counter Screen for Luciferase-based Assay Positives. [Related pubchem assays: 620, 618, 411 ]
T3 sequence (P08659 whole entry): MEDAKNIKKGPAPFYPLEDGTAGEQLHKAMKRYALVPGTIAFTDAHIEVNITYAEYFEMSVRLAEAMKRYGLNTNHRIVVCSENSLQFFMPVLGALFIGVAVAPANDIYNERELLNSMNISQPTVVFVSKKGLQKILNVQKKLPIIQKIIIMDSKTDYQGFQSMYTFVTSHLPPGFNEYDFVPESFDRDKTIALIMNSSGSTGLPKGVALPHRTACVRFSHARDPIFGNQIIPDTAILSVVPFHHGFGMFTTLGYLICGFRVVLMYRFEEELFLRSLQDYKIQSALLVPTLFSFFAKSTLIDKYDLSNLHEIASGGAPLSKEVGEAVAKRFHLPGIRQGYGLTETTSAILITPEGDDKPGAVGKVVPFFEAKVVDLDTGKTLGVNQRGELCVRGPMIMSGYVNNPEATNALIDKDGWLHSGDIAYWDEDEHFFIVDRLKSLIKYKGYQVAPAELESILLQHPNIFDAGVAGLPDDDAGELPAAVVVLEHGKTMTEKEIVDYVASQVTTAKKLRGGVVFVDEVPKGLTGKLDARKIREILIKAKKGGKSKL

[8] = Luminescence-based counterscreen assay for KLF5 inhibitors: dose response cell-based high throughput screening assay to identify cytotoxic compounds using the IEC-6 intestinal epithelial cell line. [Related pubchem assays: 1700 (Primary screen.), 1834 (Confirmation screen.), 1858 (Summary AID.), 1905 (Counterscreen.)]; assay type: functional
HEK293 [9] = experiment: PMA/Ionomycin induced NF-kB luciferase assay in 293- NF-kB-Luc stable cells. [Related pubchem assays: 1299, 1270, 1295, 1375, 1287, 1281, 1293, 1291, 1289, 1280, 465, 1364, 1282, 1372, 1365, 1370, 1367, 1366, 1269, 1373, 1292, 1290, 1302, 1371, 1283, 1271, 1294, 1374, 1368, 1369 ]; assay type: functional, cell-based; settings: Homo sapiens
[10] = blockers of HIV-1 envelope-mediated cell-cell fusion – cherry-pick, dose response (AID 652057); assay type: functional, cell-based
HEK293 [11] = experiment: PMA/Ionomycin-induced IL-8 production in HEK293- NF-kB-Luc stable cells. [Related pubchem assays: 1299, 1295, 1375, 1287, 1281, 1293, 1291, 1289, 1280, 465, 1364, 1282, 1372, 1365, 1367, 1366, 1266, 1269, 1373, 1292, 1290, 1302, 1371, 1283, 1271, 1294, 1374, 1368, 1369 ]; assay type: functional, cell-based; settings: Homo sapiens
HEK293 [12] = experiment: Cytotoxicity assay in HEK293 cells. [Related pubchem assays (depositor defined):AID1266, AID1269, AID1270, AID1271, AID1280, AID1281, AID1282, AID1283, AID1287, AID1289, AID1290, AID1291, AID1292, AID1293, AID1294, AID1295, AID1299, AID1302, AID1364, AID1365, AID1366, AID1367, AID1369, AID1370, AID1371, AID1372, AID1373, AID1374, AID1375, AID1384 …; assay type: functional, cell-based; settings: Homo sapiens
[13] = off-target signal loss in HeLa-CEM21 co-culture – HeLa F-luc CTL cells, cherry-picked, counter-screen for HIV-1 Env fusion inhibitor project, dose response (AID 652040); assay type: functional, cell-based;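 also: potency for signal decrease marking cytotoxic or nonspecific inhibition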
[14] = blockers of HIV-1 ZM109 envelope-driven cell-cell fusion – HeLa effector, CEM target cells, luciferase, cherry-pick, dose response (AID 652058); assay type: functional, cell-based;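 also: luciferase signal from HIV-1 Env mediated cell-cell fusion of effector and target cells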
HT-1080 = experiment: HT1080 cell viability loss – fluorescence readout (AID 620); assay type: functional, cell-based; settings: Homo sapiens
Protein Tat = Protein Tat (Human immunodeficiency virus type 1 group M subtype B (isolate HXB2)(HIV-1), UniProt P04608); assay type: functional;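 also: tat binding to TAR RNA read out by fluorescence polarization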
Chain of Protein Tat (P04608 whole entry): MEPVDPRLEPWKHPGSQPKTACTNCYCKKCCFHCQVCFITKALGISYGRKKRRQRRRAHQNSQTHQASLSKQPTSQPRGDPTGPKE

[15] = molecular target: Glyceraldehyde-3-phosphate dehydrogenase (Homo sapiens, UniProt P04406)
Chain of Glyceraldehyde-3-phosphate dehydrogenase (P04406 whole entry): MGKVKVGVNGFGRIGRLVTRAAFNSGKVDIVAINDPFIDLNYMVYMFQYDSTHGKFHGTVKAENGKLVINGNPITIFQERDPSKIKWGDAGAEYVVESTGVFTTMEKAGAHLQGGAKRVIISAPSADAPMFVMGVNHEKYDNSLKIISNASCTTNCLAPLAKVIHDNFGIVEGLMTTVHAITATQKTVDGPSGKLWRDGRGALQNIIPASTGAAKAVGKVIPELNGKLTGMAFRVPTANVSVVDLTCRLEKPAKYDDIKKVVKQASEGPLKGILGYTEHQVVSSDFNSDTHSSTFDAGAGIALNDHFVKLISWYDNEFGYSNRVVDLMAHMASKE

[16] = molecular target: T3, Luciferin 4-monooxygenase; experiment: In vitro luciferase assay using purified luciferase. [Related pubchem assays: 1299, 1270, 1295, 1375, 1287, 1281, 1293, 1291, 1289, 1280, 465, 1364, 1282, 1372, 1365, 1370, 1367, 1366, 1266, 1373, 1292, 1290, 1302, 1371, 1283, 1271, 1294, 1374, 1368, 1369 ]
HEK293 [17] = experiment: TNF Induced NF-kB Luciferase in 293-NF-kB-Luc Stable Cells. [Related pubchem assays: 1266, 1299, 1269, 1373, 1292, 1290, 1302, 1371, 1283, 1270, 1295, 1271, 1375, 1294, 1374, 1281, 1293, 1291, 1289, 1280, 465, 1368, 1364, 1282, 1372, 1365, 1369, 1370, 1367, 1366 ]; assay type: functional, cell-based; settings: Homo sapiens
[18] = yeast viability loss, SKY197-pL101 strain – Alamar Blue fluorescence, MIC, counter-screen for polyadenylation inhibitor project, dose response (AID 2693); assay type: functional; settings: Saccharomyces cerevisiae
[19] = mRNA 3' processing disruption, beta-gal signal increase – luminescence, S. cerevisiae SKY197-pL101, dose response (AID 2525); assay type: functional, cell-based
[20] = Luminescence Cell-Based Dose Confirmation HTS to Identify Inhibitors of Polyadenylation.; assay type: functional
Large T antigen = Large T antigen (Simian virus 40, UniProt P03070); assay type: functional, Betapolyomavirus macacae;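 also: Confirmatory-stage PubChem screen for compounds that inhibit SV40 T antigen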
Chain of Large T antigen (P03070 whole entry): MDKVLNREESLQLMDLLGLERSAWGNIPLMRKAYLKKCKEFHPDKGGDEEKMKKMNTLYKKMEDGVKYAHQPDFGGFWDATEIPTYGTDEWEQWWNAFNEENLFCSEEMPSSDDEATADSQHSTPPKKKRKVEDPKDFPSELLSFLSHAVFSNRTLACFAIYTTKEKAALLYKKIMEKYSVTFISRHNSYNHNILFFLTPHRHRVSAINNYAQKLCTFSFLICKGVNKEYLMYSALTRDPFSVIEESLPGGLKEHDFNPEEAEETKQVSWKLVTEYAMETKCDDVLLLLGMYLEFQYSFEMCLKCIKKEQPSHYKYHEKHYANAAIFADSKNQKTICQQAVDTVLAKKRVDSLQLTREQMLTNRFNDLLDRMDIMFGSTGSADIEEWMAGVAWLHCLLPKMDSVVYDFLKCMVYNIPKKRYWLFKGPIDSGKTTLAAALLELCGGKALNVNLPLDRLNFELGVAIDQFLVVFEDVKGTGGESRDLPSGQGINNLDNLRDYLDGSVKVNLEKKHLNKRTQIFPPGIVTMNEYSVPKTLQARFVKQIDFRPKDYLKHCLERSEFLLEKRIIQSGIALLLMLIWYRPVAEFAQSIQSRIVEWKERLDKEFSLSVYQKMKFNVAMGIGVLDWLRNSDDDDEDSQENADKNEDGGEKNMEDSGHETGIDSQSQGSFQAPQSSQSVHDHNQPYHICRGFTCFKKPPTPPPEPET

## CCOC(=O)c1ccc2nc(Nc3nc4ccc(F)cc4s3)sc2c1
[1]
  IC50: > 80 µM (inactive)
[2]
  EC50: 33.6 µM (active)

## COCCNC(=O)c1cnn2c(O)cc(C3CCN(C(=O)OC(C)(C)C)CC3)nc12
[3]
  EC50: > 55.7 µM (not active)
[4]
  EC50: > 55.7 µM (not active)

## O=C(c1ccc2c(c1)nc(S)n1c3ccccc3nc21)N1CCN(c2cccc(Cl)c2)CC1
INS1
  AC50: 8.62 µM (active)
[5]
  EC50: > 50 µM (active)

## Cc1cc(C(=O)CN2C(=O)c3ccccc3S2(=O)=O)c(C)n1CC1CCCO1 (centres undefined)
[6]
  AC50: 0.445 µM (active)
[7]
  EC50: 1.17 µM (active)
[8]
  IC50: > 39.8 µM (not active)
HEK293 [9]
  EC50: 0.456 µM (active)
[10]
  AC50: 0.287 µM (active)
HEK293 [11]
  EC50: > 8 µM (not active)
HEK293 [12]
  EC50: 8.14 µM (inactive)
[13]
  AC50: 0.407 µM (active)
[14]
  AC50: 1.35 µM (active)
HT-1080
  EC50: > 50 µM (not active)
Protein Tat
  IC50: > 100 µM (active)
[15]
  IC50: > 100 µM (not active)
[16]
  EC50: > 8 µM (not active)
HEK293 [17]
  EC50: 6.87 µM (not active)

## COc1cc(/C=C2\SC(=S)N(NC(=O)c3cccnc3)C2=O)ccc1O
[18]
  MIC: > 37 µM (inconclusive)
[19]
  EC50: 103 µM (active)
[20]
  EC50: 9.9 µM (active)
Large T antigen
  IC50: 8.49 µM (active)
